Results on one compound are retold here after article PMC3874807 (Bioorganic & medicinal chemistry letters, 2013).

This experiment addresses BpIspF (Burkholderia pseudomallei, UniProt Q3JRA0). Put plainly: biochemical. The class given is binding.

BpIspF, sequence (Q3JRA0 whole entry, looked up): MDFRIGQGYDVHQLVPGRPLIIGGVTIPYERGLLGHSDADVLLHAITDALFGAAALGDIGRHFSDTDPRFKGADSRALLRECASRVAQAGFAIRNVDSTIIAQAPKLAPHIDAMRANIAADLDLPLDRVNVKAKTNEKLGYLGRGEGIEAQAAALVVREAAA

The term Kd denotes the equilibrium constant for the complex coming apart. A low value points to tighter binding. Take `Oc1ccc(-n2ccnc2)cc1` [FOL955]: the Kd is over 500 µM.
